Experiments:
[1] = biological target: T1, β2AR (Homo sapiens, UniProt P07550); assay: radioligand binding, G-50 column separation; conditions: 10 nM [3H]-DHA, 20 mM HEPES pH 7.5, 100 mM NaCl, 0.5 mg/mL BSA, DDM or TMG detergent; antagonist; labelled compound
T1 construct: gene ADRB2; expressed in Sf9 insect cells (baculovirus), purified in DDM

[2] = biological target: T2, MelBSt (Salmonella enterica, UniProt P30878); assay: reversal of Trp to D2G FRET by displacement; format: biochemical; conditions: excess melibiose against 10 μM D2G, 100 mM KPi, 100 mM NaCl, pH 7.5, DDM; competitive
T2 construct: gene melB; wild type, C-terminal 10-His tag, plasmid pK95ΔAHB/WT MelBSt/CH10; detergent extract of RSO vesicles of E. coli DW2
T2 sequence (P30878 whole entry): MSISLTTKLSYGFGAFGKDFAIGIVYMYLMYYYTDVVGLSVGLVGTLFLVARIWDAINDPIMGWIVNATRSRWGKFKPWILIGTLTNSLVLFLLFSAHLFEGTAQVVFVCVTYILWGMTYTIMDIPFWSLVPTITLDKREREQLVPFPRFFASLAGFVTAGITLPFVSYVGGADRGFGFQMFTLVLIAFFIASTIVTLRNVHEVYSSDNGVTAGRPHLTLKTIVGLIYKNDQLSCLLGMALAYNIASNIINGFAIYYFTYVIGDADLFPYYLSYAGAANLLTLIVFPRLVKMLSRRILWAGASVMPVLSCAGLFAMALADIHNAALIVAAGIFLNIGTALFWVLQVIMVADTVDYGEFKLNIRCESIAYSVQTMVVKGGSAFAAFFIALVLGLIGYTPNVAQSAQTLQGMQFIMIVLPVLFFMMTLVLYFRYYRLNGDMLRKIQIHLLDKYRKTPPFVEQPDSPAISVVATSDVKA

[3] = biological target: T3, MelBEc (Escherichia coli, UniProt P02921); assay: reversal of Trp to D2G FRET by displacement; format: biochemical; conditions: excess melibiose against 10 μM D2G, 100 mM KPi, 100 mM NaCl, pH 7.5, TMG-A12 or TMG-A13; competitive
T3 construct: gene melB; expressed in E. coli DW2 (ΔmelB ΔlacZY); detergent extract of RSO membrane vesicles
T3 sequence (P02921 2-473): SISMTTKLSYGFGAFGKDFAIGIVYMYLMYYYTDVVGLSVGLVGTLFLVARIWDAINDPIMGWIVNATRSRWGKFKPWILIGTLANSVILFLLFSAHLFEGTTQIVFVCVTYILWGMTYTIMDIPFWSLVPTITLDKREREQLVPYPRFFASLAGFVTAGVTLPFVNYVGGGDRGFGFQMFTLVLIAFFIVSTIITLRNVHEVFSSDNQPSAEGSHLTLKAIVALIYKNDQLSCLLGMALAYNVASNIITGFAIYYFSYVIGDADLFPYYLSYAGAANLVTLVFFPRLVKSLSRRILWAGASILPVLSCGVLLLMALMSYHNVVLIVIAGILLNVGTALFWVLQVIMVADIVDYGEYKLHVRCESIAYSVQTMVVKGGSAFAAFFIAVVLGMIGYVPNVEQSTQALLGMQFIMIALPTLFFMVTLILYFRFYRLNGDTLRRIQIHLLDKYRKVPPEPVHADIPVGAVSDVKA

[4] = biological target: T2, MelBSt; assay: Trp to D2G FRET in detergent extract of membrane vesicles; format: biochemical; conditions: 10 μM D2G, 100 mM KPi, 100 mM NaCl, pH 7.5, DDM; fluorescent ligand
[5] = biological target: T3, MelBEc; assay: as above; format: biochemical; conditions: 10 μM D2G, 100 mM KPi, 100 mM NaCl, pH 7.5, TMG-A12 or TMG-A13; fluorescent ligand

T1 sequence (P07550 whole entry): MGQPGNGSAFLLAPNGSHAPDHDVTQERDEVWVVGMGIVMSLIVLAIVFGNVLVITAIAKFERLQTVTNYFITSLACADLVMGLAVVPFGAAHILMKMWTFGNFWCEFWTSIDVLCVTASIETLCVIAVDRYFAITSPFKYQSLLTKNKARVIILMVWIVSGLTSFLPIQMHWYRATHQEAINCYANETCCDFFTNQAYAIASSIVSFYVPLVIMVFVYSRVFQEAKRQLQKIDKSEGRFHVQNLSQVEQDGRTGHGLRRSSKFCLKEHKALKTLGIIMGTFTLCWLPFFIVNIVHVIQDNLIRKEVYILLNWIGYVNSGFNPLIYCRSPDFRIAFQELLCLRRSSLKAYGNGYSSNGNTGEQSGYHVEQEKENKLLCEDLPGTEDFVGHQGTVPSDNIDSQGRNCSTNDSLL

## CCCc1ccccc1OCC(O)CNC(C)C (centres unmarked) [[3H]-dihydroalprenolol]
[1]
  [3H]-DHA binding: receptor stability was assessed via a ligand binding assay using the antagonist, [^3H]-dihydroalprenolol

## OC[C@H]1O[C@H](OC[C@H]2OC(O)[C@H](O)[C@@H](O)[C@@H]2O)[C@H](O)[C@@H](O)[C@H]1O (some centres unmarked) [melibiose]
[2]
  FRET reversal: Upon addition of melibiose, the DDM-solubilized MelBSt gave a large reversal in the FRET signal
[3]
  FRET reversal: reversed by adding a non-fluorescent sugar substrate (i.e., melibiose)

## CN(C)c1cccc2c(S(=O)(=O)NCCS[C@@H]3O[C@H](CO)[C@H](O)[C@H](O)[C@H]3O)cccc12 [D2G, 2′-(N-dansyl)aminoalkyl-1-thio-β-D-galactopyranoside]
[4]
  Trp→D2G FRET: a functional MelBSt gives an increase in fluorescence intensity induced by Trp→ D^2G FRET
[5]
  Trp→D2G FRET: TMG-A12 or TMG-A13 resulted in a functional MelBEc as demonstrated by large changes in FRET signal

Reference: publication PMC5479785, “Tandem malonate-based glucosides (TMGs) for membrane protein structural studies” (Scientific Reports, 2017)
